Test results from patent publication US20100298314A1, “NOVEL JNK INHIBITORS” (Schering Corporation, priority 2006, published 2010).
Where “and” joins values, the source holds several entries; their conditions need not be identical. Identical values can stand only once. Like-named read-outs stand apart in the source and are kept apart here.

What was measured:
Assay type in all cases: biochemical
JNK1 = JNK1 (Homo sapiens, UniProt P45983); assay: JNK1 kinase DELFIA (phosphorylation of biotinylated GST-ATF2)
Protocol: (§1) Before initiation of kinase reactions, compounds were pre-incubated with the enzyme for 10 minutes. Pre-incubation reactions contained 50 mM HEPES pH 7.3, 10 mM MgCl2, 1 mM DTT, 75 mM NaCl, 1 mM EDTA, 1 mM EGTA, 0.01% CHAPS, 2 nM JNK1, 6 ug/mL biotinylated GST-ATF2, 0.1 mg/ml BSA, 5% DMSO and 0-100 μM compound in a total volume of 40 μL. After a 10 minute room temperature pre-incubation, 10 μL of 35 μM ATP was added to start the reaction (final concentration of ATP=7 uM). Reactions were incubated at room temperature for 30 minutes. A small aliquot (10 uL) was taken and quenched by adding into 190 uL of DELFIA Assay buffer containing 100 mM EDTA. The amount of phosphate transferred to biotinylated GST-ATF2 was measured using the Dissociation Enhanced Lanthanide Fluorescence Immuno-assay (DELFIA) from Perkin Elmer according to manufacturers protocol. Briefly, biotinylated GST-ATF2 was captured on streptavidin coated plates for 1 hour, washed twice, then incubated for 1 hour with a 1:1000 dilution of rabbit-anti-phospho-ATF2 antibody and a 1:3500 dilution of Europium-labeled anti-rabbit secondary antibody. Free antibody was removed with six washes, Europium was dissociated from the antibody, and Europium fluorescence was measured using an excitation wavelength of 340 nm and an emission wavelength of 615 nm. JNK2 and JNK3 kinase reactions were carried out similarly, with the exception that the final concentration of ATP was 4 uM and 2 uM, respectively.

JNK3 = JNK3 (Homo sapiens, UniProt P53779); assay: JNK3 kinase DELFIA (phosphorylation of biotinylated GST-ATF2); conditions: final ATP 2 uM
Protocol: as §1

JNK2 = JNK2 (Homo sapiens, UniProt P45984); assay: JNK2 kinase DELFIA (phosphorylation of biotinylated GST-ATF2); conditions: final ATP 4 uM, reported as range for a group
Protocol: as §1

[1] = DELFIA, 2 nM JNK1, final ATP 7 uM, 10 min pre-incubation, reported as range for a group

JNK2, sequence (P45984 whole entry, species assumed): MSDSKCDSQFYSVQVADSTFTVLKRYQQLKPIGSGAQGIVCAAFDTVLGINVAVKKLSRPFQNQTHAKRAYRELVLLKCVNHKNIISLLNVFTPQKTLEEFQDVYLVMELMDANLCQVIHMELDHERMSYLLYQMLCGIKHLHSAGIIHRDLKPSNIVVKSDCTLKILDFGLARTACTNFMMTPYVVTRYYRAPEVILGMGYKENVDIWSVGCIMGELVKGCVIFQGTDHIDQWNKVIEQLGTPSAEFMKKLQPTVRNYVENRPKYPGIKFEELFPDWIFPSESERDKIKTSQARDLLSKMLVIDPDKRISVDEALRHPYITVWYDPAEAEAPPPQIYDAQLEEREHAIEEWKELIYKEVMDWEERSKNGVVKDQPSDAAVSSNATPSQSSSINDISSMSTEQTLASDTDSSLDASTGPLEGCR
JNK1, sequence (P45983 whole entry, species assumed): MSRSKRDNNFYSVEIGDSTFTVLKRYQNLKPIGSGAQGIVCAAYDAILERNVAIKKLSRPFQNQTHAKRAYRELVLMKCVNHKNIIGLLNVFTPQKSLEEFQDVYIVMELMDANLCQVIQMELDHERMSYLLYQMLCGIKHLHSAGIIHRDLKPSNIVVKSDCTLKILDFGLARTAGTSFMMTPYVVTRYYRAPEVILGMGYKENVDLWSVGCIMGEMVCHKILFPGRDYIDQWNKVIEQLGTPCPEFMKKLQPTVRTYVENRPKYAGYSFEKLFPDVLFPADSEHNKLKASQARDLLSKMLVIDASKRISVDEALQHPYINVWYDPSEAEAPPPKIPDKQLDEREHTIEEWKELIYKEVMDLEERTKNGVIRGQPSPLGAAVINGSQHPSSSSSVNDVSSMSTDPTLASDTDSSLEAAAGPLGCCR
JNK3, sequence (P53779 whole entry, species assumed): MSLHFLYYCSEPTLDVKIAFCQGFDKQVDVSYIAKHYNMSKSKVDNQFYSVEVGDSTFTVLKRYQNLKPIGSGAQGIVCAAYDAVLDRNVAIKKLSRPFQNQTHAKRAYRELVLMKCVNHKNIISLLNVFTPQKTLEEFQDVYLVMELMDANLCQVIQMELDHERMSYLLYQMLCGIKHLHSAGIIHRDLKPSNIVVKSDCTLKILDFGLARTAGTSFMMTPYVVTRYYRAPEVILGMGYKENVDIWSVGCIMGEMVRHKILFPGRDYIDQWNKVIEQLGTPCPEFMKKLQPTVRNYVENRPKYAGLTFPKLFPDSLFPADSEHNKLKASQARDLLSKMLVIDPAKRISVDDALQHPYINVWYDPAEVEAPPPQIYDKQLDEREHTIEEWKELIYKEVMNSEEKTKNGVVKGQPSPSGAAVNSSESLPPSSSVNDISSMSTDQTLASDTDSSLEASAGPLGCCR

Structure (SMILES)	IC50 (JNK1; [1])	further results
COc1ccc(-c2cc(CNC(=O)c3cccn4c(C(=O)N[C@H](CO)CC(C)C)c(-c5ccsc5)nc34)no2)cc1 [Compound 274]	6 to 100 nM	–
CC(C)C[C@@H](CO)NC(=O)c1cnc2c(C(=O)NCc3cnn(-c4ccc(S(=O)(=O)N(C)C)cc4)c3)cccn12 [Compound 650]	6 to 100 nM and 6 to 20 nM	–
Cc1nc2cc(CNC(=O)c3cccn4c(C(=O)N[C@H](CO)CC(C)C)c(-c5ccsc5)nc34)ccc2n1C [Compound 139]	6 to 100 nM and 6 to 20 nM	–
CC(C)c1nc2ccc(CNC(=O)c3cccn4c(C(=O)NCC5(O)CCCCC5)c(-c5ccsc5)nc34)cc2[nH]1 [Compound 117]	6 to 100 nM	–
CC(C)CNC(=O)c1c(-c2ccsc2)nc2c(C(=O)NCc3ccc4nc(N)sc4c3)cccn12 [Compound 38]	–	IC50 (JNK3): 54 to 98 nM; IC50 (JNK2): 201 to 666 nM
CC(C)C[C@@H](CO)NC(=O)c1c(-c2ccsc2)nc2c(C(=O)NCc3ccc4ncccc4c3)cccn12 [Compound 115]	–	IC50 (JNK3): 9 to 50 nM; IC50 (JNK2): 4 to 46 nM
Cc1nc2ccc(CNC(=O)c3cccn4c(C(=O)NC(C)C)c(-c5ccccn5)nc34)cc2[nH]1 [Compound 480]	6 to 100 nM	–
Cc1cc(C(=O)NCc2ccc3nc(N)sc3c2)c2nc(C)c(C(=O)N[C@H](CO)CC(C)C)n2c1 [Compound 351]	–	IC50 (JNK2): 1070 to 11500 nM
CC(C)C[C@@H](CO)NC(=O)c1c(-c2ccsc2)nc2c(C(=O)NCc3ccc(NC4CCCC4)nc3)cccn12 [Compound 292]	6 to 100 nM	–
CC(C)C[C@@H](CO)NC(=O)c1cnc2c(C(=O)NCc3cnn(-c4ccc(S(C)(=O)=O)cc4)c3)cccn12 [Compound 629]	6 to 20 nM and 6 to 10 nM	–
CC[C@H](C)[C@@H](CO)NC(=O)c1c(-c2ccsc2)nc2c(C(=O)NCc3ccc4nc(N)sc4c3)cccn12 [Compound 46]	6 to 100 nM	–
CC(C)C[C@@H](CO)NC(=O)c1cnc2c(C(=O)NCc3ccc4nc(N)sc4c3)cccn12 [Compound 543]	6 to 100 nM	–
C[C@@H](NC(=O)c1c(-c2ccsc2)nc2c(C(=O)NCc3ccc4nc(N)sc4c3)cccn12)c1ccccc1 [Compound 42]	–	IC50 (JNK3): 118 to 174 nM; IC50 (JNK2): 52 to 94 nM
Nc1nc2ccc(CNC(=O)c3cccn4c(C(=O)N[C@@H]5c6ccccc6C[C@@H]5O)c(-c5ccsc5)nc34)cc2s1 [Compound 279]	6 to 100 nM	–
Cc1nc2ccc(CNC(=O)c3cccn4c(C(=O)NCC5(O)CCCCC5)c(-c5ccsc5)nc34)cc2[nH]1 [Compound 118]	6 to 100 nM	IC50 (JNK1; read-out: JNK 1 IC50): 23 nM
CC(C)C[C@@H](CO)NC(=O)c1c(-c2ccccn2)nc2c(C(=O)NCc3ccn(-c4ccccc4)n3)cccn12 [Compound 477]	6 to 100 nM	–
CSCC[C@@H](CO)NC(=O)c1c(-c2ccsc2)nc2c(C(=O)NCc3ccc(S(C)(=O)=O)cc3)cccn12 [Compound 242]	6 to 100 nM	–
CC(C)C[C@@H](CO)NC(=O)c1c(-c2ccsc2)nc2c(C(=O)NCc3ccc4nc[nH]c4c3)cccn12 [Compound 111]	–	IC50 (JNK3): 54 to 98 nM; IC50 (JNK2): 52 to 94 nM
CCc1nc2c(C(=O)NCc3ccc4nc(C)sc4c3)cccn2c1C(=O)N[C@H](CO)CC(C)C [Compound 131]	6 to 100 nM	–

Structure (SMILES)	IC50 (JNK1; [1])	further results
CCc1nc2c(C(=O)NCc3cnn(-c4ccc(S(C)(=O)=O)cc4)c3)cccn2c1C(=O)N[C@H](CO)CC(C)C [Compound 472]	6 to 100 nM	–
CNc1nc2ccc(CNC(=O)c3cccn4c(C(=O)N[C@H](CO)CC(C)C)c(-c5ccccn5)nc34)cc2s1 [Compound 156]	6 to 20 nM	–
Nc1nc2ccc(CNC(=O)c3cccn4c(C(=O)N[C@H](CO)C5CCCCC5)c(-c5ccsc5)nc34)cc2s1 [Compound 69]	6 to 100 nM	–
CC(C)C[C@@H](CO)NC(=O)c1c(-c2ccsc2)nc2c(C(=O)NCc3ccc(C(=O)O)cc3)cccn12 [Compound 326]	6 to 100 nM	–
CC(C)C[C@@H](CO)NC(=O)c1c(-c2ccccn2)nc2c(C(=O)NCc3cnn(-c4cccc(C(F)(F)F)c4)c3)cccn12 [Compound 484]	6 to 100 nM	–
CC(C)C[C@@H](CO)NC(=O)c1c(-c2ccsc2)nc2c(C(=O)NCc3ccc(-c4ccccc4)nc3)cccn12 [Compound 305]	6 to 100 nM	–
CC(C)C[C@@H](CO)NC(=O)c1c(-c2ccsc2)nc2c(C(=O)N[C@H](C)c3ccc(O)cc3)cccn12 [Compound 213]	6 to 100 nM	–
CC(C)C[C@@H](CO)NC(=O)c1c(-c2ccsc2)nc2c(C(=O)NCc3ccc4c(c3)OCO4)cccn12 [Compound 94]	6 to 100 nM	–
CC(C)[C@@H](CO)NC(=O)c1c(-c2ccsc2)nc2c(C(=O)NCc3ccc4nc(N)sc4c3)cccn12 [Compound 47]	6 to 100 nM	–
CC(C)C[C@@H](CO)NC(=O)c1c(-c2ccsc2)nc2c(C(=O)NCc3ccc(N4CCCC4=O)nc3)cccn12 [Compound 324]	6 to 100 nM	–
CC(C)C[C@@H](CO)NC(=O)c1c(-c2ccccn2)nc2c(C(=O)NCc3ccc(N4CCCC4=O)cc3)cccn12 [Compound 485]	6 to 100 nM and 6 to 20 nM	–
CC(C)C[C@@H](CO)NC(=O)c1c(-c2ccsc2)nc2c(C(=O)NCc3ccc(C(F)(F)F)nc3)cccn12 [Compound 209]	6 to 100 nM	–
CCCC[C@@H](CO)NC(=O)c1c(-c2ccsc2)nc2c(C(=O)NCc3ccc4nc(N)sc4c3)cccn12 [Compound 280]	6 to 100 nM	–
CC(C)CC(CO)NC(=O)c1cnc2c(C(=O)NCc3cnn(-c4ccc(S(=O)(=O)N(C)C)c(Cl)c4)c3)cccn12 (stereo not shown) [Compound 651]	6 to 100 nM and 6 to 20 nM and 6 to 10 nM	IC50 (JNK1; read-out: JNK 1 IC50): 10 nM
Nc1nc2ccc(CNC(=O)c3cccn4c(C(=O)N[C@@H](CO)CC5CC5)c(-c5ccsc5)nc34)cc2s1 [Compound 285]	6 to 100 nM	–
CCc1nc2c(C(=O)NCc3cnn(-c4ccc(C)cc4)c3)cccn2c1C(=O)O [Compound 445]	6 to 100 nM	–
CC(C)C[C@@H](CO)NC(=O)c1c(-c2ccccn2)nc2c(C(=O)NCc3ccc4occc4c3)cccn12 [Compound 489]	6 to 100 nM	–
CC(C)C[C@@H](CO)NC(=O)c1c(-c2ccccn2)nc2c(C(=O)NCc3cnc4nc(N)sc4c3)cccn12 [Compound 481]	6 to 100 nM	–
Cc1nc2ccc(-n3cc(CNC(=O)c4cccn5c(C(=O)N[C@H](CO)CC(C)C)cnc45)cn3)cc2n1C [Compound 647]	6 to 100 nM and 6 to 20 nM	IC50 (JNK1; read-out: JNK 1 IC50): 16 nM

Structure (SMILES)	IC50 (JNK1; [1])	further results
CC(C)C[C@@H](CO)NC(=O)c1c(-c2ccccn2)nc2c(C(=O)NCc3ccc4[nH]ncc4c3)cccn12 [Compound 502]	6 to 100 nM and 6 to 20 nM and 6 to 10 nM	–
Nc1nc2ccc(CNC(=O)c3cccn4c(C(=O)NC5CCCC5CO)c(-c5ccsc5)nc34)cc2s1 (stereo not shown) [Compound 283]	6 to 100 nM	–
CC(C)C[C@@H](CO)NC(=O)c1c(-c2ccsc2)nc2c(C(=O)NCc3ccc(N4CCCCCC4)nc3)cccn12 [Compound 298]	6 to 100 nM	–
CC(C)C[C@@H](CO)NC(=O)c1c(-c2ccccn2)nc2c(C(=O)NCc3cnn(-c4ccc(S(C)(=O)=O)cc4)c3)cccn12 [Compound 491]	6 to 100 nM and 6 to 20 nM	–
Cc1nc2c(C(=O)NCc3ccc4nc(N)sc4c3)cccn2c1C(=O)N[C@H](CO)CC(C)C [Compound 598]	6 to 100 nM and 6 to 20 nM	–
Cc1cccc(-n2cc(CNC(=O)c3cccn4c(C(=O)N[C@H](CO)CC(C)C)c(-c5ccccn5)nc34)cn2)c1 [Compound 490]	6 to 100 nM	–
O=C(NCc1ccc2c(c1)OCO2)c1cccn2c(C(=O)N[C@H](CO)c3ccccc3)c(-c3ccsc3)nc12 [Compound 238]	6 to 100 nM	–
CC(C)C[C@@H](CO)NC(=O)c1c(-c2ccsc2)nc2c(C(=O)NCc3ccc4[nH]ncc4c3)cccn12 [Compound 277]	6 to 100 nM and 6 to 20 nM	–
COC[C@H](CC(C)C)NC(=O)c1c(-c2ccsc2)nc2c(C(=O)NCc3ccc4nc(N)sc4c3)cccn12 [Compound 593]	6 to 100 nM	–
CC(C)C[C@@H](CO)NC(=O)c1c(-c2ccc(Cl)cc2)nc2c(C(=O)NCc3ccc4nc(N)sc4c3)cccn12 [Compound 453]	6 to 100 nM	–
CC(C)C[C@@H](CO)NC(=O)c1c(-c2cccnc2)nc2c(C(=O)NCc3ccc4nc(N)sc4c3)cccn12 [Compound 405]	6 to 100 nM	–
CCc1nc2c(C(=O)NCc3ccc(S(C)(=O)=O)cc3)cccn2c1C(=O)N[C@H](CO)CC(C)C [Compound 457]	6 to 100 nM	–
CC(C)C[C@@H](CO)NC(=O)c1cnc2c(C(=O)NCc3cnn(-c4ccc(S(=O)(=O)N(C)C)c(F)c4)c3)cccn12 [Compound 652]	6 to 100 nM and 6 to 20 nM and 6 to 10 nM	IC50 (JNK1; read-out: JNK 1 IC50): 11 nM
CC(C)C[C@@H](CO)NC(=O)c1c(-c2ccccc2F)nc2c(C(=O)NCc3ccc4nc(N)sc4c3)cccn12 [Compound 545]	6 to 100 nM	–
CC(C)C[C@@H](CO)NC(=O)c1c(-c2ccsc2)nc2c(C(=O)NCc3cnc4nc(N)sc4c3)cccn12 [Compound 150]	6 to 100 nM	–
CC(C)C[C@@H](CO)NC(=O)c1c(-c2ccsc2)nc2c(NC(=O)Cc3ccc4c(c3)OCO4)cccn12 [Compound 664]	6 to 100 nM	–
CC(C)C[C@@H](CO)NC(=O)c1c(-c2ccsc2)nc2c(C(=O)NCc3cnn(-c4cccc(C(F)(F)F)c4)c3)cccn12 [Compound 224]	6 to 100 nM	–
CCc1nc2c(C(=O)NCc3ccc4[nH]ncc4c3)cccn2c1C(=O)N[C@H](CO)CC(C)C [Compound 471]	6 to 100 nM	–
